Results: patent US10259782B2, “ROR gamma (RORγ) modulators” (LEAD PHARMA HOLDING B.V., priority 2015, dated 2019)

Molecular target: T1, RORγ (Homo sapiens, UniProt P51449)
T1 construct: expressed in transfected cells; host or cells: 293FT cells (Invitrogen), expression vector pFN26A (Promega)
T1 sequence (P51449 269-508 limits assumed): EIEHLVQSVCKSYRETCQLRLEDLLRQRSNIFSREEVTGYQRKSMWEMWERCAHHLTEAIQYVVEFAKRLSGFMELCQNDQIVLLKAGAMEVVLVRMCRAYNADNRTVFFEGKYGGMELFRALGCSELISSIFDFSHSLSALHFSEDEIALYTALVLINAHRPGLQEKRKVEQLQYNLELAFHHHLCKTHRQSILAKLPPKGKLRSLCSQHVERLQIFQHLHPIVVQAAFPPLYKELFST
Assay: RORγ GAL4 reporter gene assay (luciferase readout, 293FT cells)
Assay type: cell-based
Conditions: inhibition of RORγ (GAL4-RORγ-LBD) in transfected 293FT cells, luciferase signal, overnight incubation; read-out: mean pIC50 (converted)
Protocol: RORγ GAL4 Reporter Gene Assay
Example inhibitors 1-47 were tested for their ability to inhibit RORγ activity in a RORγ GAL4 reporter gene assay. The assay procedure and results are described below.
RORγ GAL4 Reporter Gene Assay Description
A GAL4 one-hybrid reporter system employing luciferase readout was established to determine inhibition of RORγ in 293FT cells. The RORγ ligand-binding domain (LBD) was fused to the yeast GAL4 DNA binding domain (DBD) and placed under the control of the human cytomegalovirus (CMV) immediate early promoter, using expression vector pFN26A (Promega) and standard recombinant DNA cloning methods. To serve as a control in the assay, a similar vector was generated in which the GAL4-DBD was fused to Herpes simplex virus protein 16 (VP16), a constitutive transcriptional activator.
To monitor the inhibitory effect of compounds on RORγ, a transcriptional reporter construct was used. The pGL4.35 vector (Promega) contains nine copies of the GAL4 Upstream Activator Sequence (UAS). This sequence drives the transcription of the luciferase reporter gene luc2P in response to binding of a fusion protein containing the GAL4 DNA binding domain, as for example expressed by the GAL4-RORγ-LBD and GAL4-VP16 expression vectors described above. To allow a GAL4 fusion protein to drive the expression of the luciferase reporter, the pGL4.35 expression vector and the appropriate GAL4 fusion protein expression vector were bulk transfected in the 293FT cells using standard transfection techniques.
The day after transfection, cells were plated into 96 well plates, test compound was added and the plates were incubated overnight. Subsequently, the firefly luciferase activity was quantified using luciferase detection reagent and luminescence readout.
Detailed Assay Description
293FT cells (Invitrogen) were transfected with a GAL4 fusion protein expression vector (as described above) and the transcriptional reporter construct (pGL4.35, Promega). 60 μL of TransIT-293 transfection reagent (Mirus Bio) was added drop wise to 1500 μl Opti-MEM I Reduced Serum Medium (Invitrogen) and incubated at room temperature (RT) for 5 to 20 minutes. 1500 μL of this reagent mixture was added to 5 μg of GAL4 fusion protein expression vector and 5 μg of the transcriptional reporter construct, and incubated at RT for 20 minutes.
To harvest 293FT cells from a T75 flask, first the culture medium was taken off the cells. Subsequently, the cells were washed with Phosphate Buffered Saline (PBS) (Lonza), after which the PBS was removed. To dissociate the cells, 1 ml of TrypLE Express (Invitrogen) was added to the flask, followed by incubation at RT until the cells visually started to detach. Cells were collected in 5 mL of assay medium (DMEM culture medium (Lonza), 10% dialyzed FBS (Invitrogen) and Pen/Strep (Lonza)) to achieve a single cell suspension. 10×10^6 cells were spun down and re-suspended in 10 mL of assay medium. Subsequently, the cell suspension was added to the transfection mix tube, and then transferred as a whole to a T75 flask (Greiner), followed by overnight (16-24 hours) incubation at 37° C. and 5% CO2.
For compound screening, the cells were harvested (as described above) and counted. 13×10^6 cells were spun down, the supernatant was aspirated and the cells were re-suspended in 17.3 mL of assay medium obtaining a cell suspension of 0.75×10^6 cells/mL. 80 μL of cell suspension (60,000 cells) was plated per well into a white, flat bottom, tissue culture treated, 96 well screening plates (Greiner).
Test compounds were diluted, starting from a 10 mM dimethylsulf oxide (DMSO) stock solution, to serial dilutions in DMSO at 500× the final test concentration. Subsequently, these solutions were diluted to 5× the final test concentration in two 10-fold-dilution steps in assay medium. The final DMSO concentration of the 5× test compound solution was 1%. […]

SMILES	IC50 [nM]
O=C(Cc1ccc(S(=O)(=O)CC2CC2)cc1)Nc1cc(-c2ccccc2)cs1 [Example 24, 2-(4-cyclopropylmethanesulfonylphenyl)-N-(4-phenylthiophen-2-yl)acetamide]	≤ 1000
O=C(Cc1ccc(S(=O)(=O)CC2CC2)cc1)Nc1ccc(-c2cccc(F)c2)c(Oc2cccc(C(F)(F)F)c2)c1 [Example 11, 2-(4-cyclopropylmethanesulfonylphenyl)-N-[4-(3-fluorophenyl)-3-[3-(trifluoromethyl)phenoxy]phenyl]acetamide]	≤ 100
O=C(Cc1ccc(S(=O)(=O)CC2CC2)cc1)Nc1ccc(-c2ccccc2OC(F)(F)F)c(Cl)c1 [Example 28, N-{3-chloro-4-[2-(trifluoromethoxy)phenyl]phenyl}-2-(4-cyclopropylmethanesulfonylphenyl)acetamide]	≤ 100
COc1cccc(Oc2cc(NC(=O)Cc3ccc(S(=O)(=O)CC4CC4)cc3)ccc2-n2cnc(C)c2)c1 [Example 3, 2-(4-cyclopropylmethanesulfonylphenyl)-N-[3-(3-methoxyphenoxy)-4-(4-methyl-1H-imidazol-1-yl)phenyl]acetamide]	≤ 100
Cc1ccn(-c2ccc(NC(=O)Cc3ccc(S(=O)(=O)CC4CC4)cc3)cc2)n1 [Example 40, 2-(4-cyclopropylmethanesulfonylphenyl)-N-[4-(3-methyl-1H-pyrazol-1-yl)phenyl]acetamide]	≤ 1000
O=C(Cc1ccc(S(=O)(=O)NC2CC2)cc1)Nc1ccc(-c2ccccc2OC(F)(F)F)c(Cl)c1 [Example 33, N-{3-chloro-4-[2-(trifluoromethoxy)phenyl]phenyl}-2-[4-(cyclopropylsulfamoyl)phenyl]acetamide]	≤ 100
O=C(Cc1ccc(S(=O)(=O)CC2CC2)cc1)Nc1ccc(-c2ccc(F)cc2)c(Oc2cccc(F)c2)c1 [Example 12, 2-(4-cyclopropylmethanesulfonylphenyl)-N-[3-(3-fluorophenoxy)-4-(4-fluorophenyl)phenyl]acetamide]	≤ 100
Cc1nc(NC(=O)Cc2ccc(S(=O)(=O)CC3CC3)cc2)ccc1-c1ccccc1OC(F)(F)F [Example 32, 2-(4-cyclopropylmethanesulfonylphenyl)-N-{6-methyl-5-[2-(trifluoromethoxy)phenyl]pyridin-2-yl}acetamide]	≤ 100
O=C(Cc1ccc(S(=O)(=O)CC2CC2)cc1)Nc1nc(-c2ccccc2)c(Oc2cccnc2)s1 [Example 21, 2-(4-cyclopropylmethanesulfonylphenyl)-N-[4-phenyl-5-(pyridin-3-yloxy)-1,3-thiazol-2-yl]acetamide]	≤ 1000
Cc1cc(NC(=O)Cc2ccc(S(=O)(=O)CC3CC3)cc2)nc(C)c1-c1ccccc1OC(F)(F)F [Example 37, 2-(4-cyclopropylmethanesulfonylphenyl)-N-{4,6-dimethyl-5-[2-(trifluoromethoxy)phenyl]pyridin-2-yl}acetamide]	≤ 100
O=C(Cc1ccc(S(=O)(=O)CC2CC2)cc1)Nc1ccc(-c2ccc(F)c(F)c2)c(Oc2cccc(Cl)c2)c1 [Example 5, N-[3-(3-chlorophenoxy)-4-(3,4-difluorophenyl)phenyl]-2-(4-cyclopropylmethanesulfonylphenyl)acetamide]	≤ 100
O=C(Cc1ccc(S(=O)(=O)NC2CC2)cc1)Nc1nc(-c2ccccc2)c(C(=O)c2ccccc2)s1 [Example 26, N-(5-benzoyl-4-phenyl-1,3-thiazol-2-yl)-2-[4-(cyclopropylsulfamoyl)phenyl]acetamide]	≤ 100
COc1cccc(Oc2cc(NC(=O)Cc3ccc(S(=O)(=O)CC4CC4)cc3)ccc2-c2cccc(F)c2)c1 [Example 2, 2-(4-cyclopropylmethanesulfonylphenyl)-N-[4-(3-fluorophenyl)-3-(3-methoxyphenoxy)phenyl]acetamide]	≤ 100
Cc1cc(NC(=O)Cc2ccc(S(=O)(=O)NC3CC3)cc2)ncc1-c1ccccc1OC(F)(F)F [Example 35, 2-[4-(cyclopropylsulfamoyl)phenyl]-N-{4-methyl-5-[2-(trifluoromethoxy)phenyl]pyridin-2-yl}acetamide]	≤ 1000
O=C(Cc1ccc(S(=O)(=O)CC2CC2)cc1)Nc1ccc(-c2cccc(F)c2)c(Oc2cc(F)cc(F)c2)c1 [Example 13, 2-(4-cyclopropylmethanesulfonylphenyl)-N-[3-(3,5-difluorophenoxy)-4-(3-fluorophenyl)phenyl]acetamide]	≤ 100
N#Cc1cccc(-c2ccc(NC(=O)Cc3ccc(S(=O)(=O)CC4CC4)cc3)cc2Oc2cccc(Cl)c2)c1 [Example 10, N-[3-(3-chlorophenoxy)-4-(3-cyanophenyl)phenyl]-2-(4-cyclopropylmethanesulfonylphenyl)acetamide]	≤ 100
O=C(Cc1ccc(S(=O)(=O)CC2CC2)cc1)Nc1ccc(-c2cccc(F)c2)c(Oc2cccc(Cl)c2)c1 [Example 4, N-[3-(3-chlorophenoxy)-4-(3-fluorophenyl)phenyl]-2-(4-cyclopropylmethanesulfonylphenyl)acetamide]	≤ 100
Cc1ccnn1-c1ccc(NC(=O)Cc2ccc(S(=O)(=O)CC3CC3)cc2)cc1 [Example 41, 2-(4-cyclopropylmethanesulfonylphenyl)-N-[4-(5-methyl-1H-pyrazol-1-yl)phenyl]acetamide]	≤ 1000
N#Cc1ccc(-c2ccc(NC(=O)Cc3ccc(S(=O)(=O)CC4CC4)cc3)cc2Oc2cccc(F)c2)cc1 [Example 9, N-[4-(4-cyanophenyl)-3-(3-fluorophenoxy)phenyl]-2-(4-cyclopropylmethanesulfonylphenyl)acetamide]	≤ 100
COc1cccc(Oc2cc(NC(=O)Cc3ccc(S(=O)(=O)CC4CC4)cc3)ccc2-n2nccc2C)c1 [Example 7, 2-(4-cyclopropylmethanesulfonylphenyl)-N-[3-(3-methoxyphenoxy)-4-(5-methyl-1H-pyrazol-1-yl)phenyl]acetamide]	≤ 100
O=C(Cc1ccc(S(=O)(=O)CC2CC2)cc1)Nc1nc(-c2ccccc2)c(Oc2ccccc2)s1 [Example 20, 2-(4-cyclopropylmethanesulfonylphenyl)-N-(5-phenoxy-4-phenyl-1,3-thiazol-2-yl)acetamide]	≤ 1000
O=C(Cc1ccc(S(=O)(=O)CC2CC2)cc1)Nc1cc(Cl)c(-c2ccccc2OC(F)(F)F)c(Cl)c1 [Example 30, 2-(4-cyclopropylmethanesulfonylphenyl)-N-{3,5-dichloro-4-[2-(trifluoromethoxy)phenyl]phenyl}acetamide]	≤ 100
O=C(Cc1ccc(S(=O)(=O)NC2CC2)cc1)Nc1ccc(-c2cccc(F)c2)c(Oc2cccc(C(F)(F)F)c2)c1 [Example 19, 2-[4-(cyclopropylsulfamoyl)phenyl]-N-[4-(3-fluorophenyl)-3-[3-(trifluoromethyl)phenoxy]phenyl]acetamide]	≤ 1000
O=C(Cc1ccc(S(=O)(=O)CC2CC2)cc1)Nc1ccc(-c2cnco2)cc1 [Example 43, 2-(4-cyclopropylmethanesulfonylphenyl)-N-[4-(1,3-oxazol-5-yl)phenyl]acetamide]	≤ 1000
O=C(Cc1ccc(S(=O)(=O)NC2CC2)cc1)Nc1ccc(-c2ccc(F)c(F)c2)c(Oc2cccc(Cl)c2)c1 [Example 18, N-[3-(3-chlorophenoxy)-4-(3,4-difluorophenyl)phenyl]-2-[4-(cyclopropylsulfamoyl)phenyl]acetamide]	≤ 1000
